Test results as given in ChEMBL document CHEMBL1201862, “PubChem BioAssay data set” (2004).
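48-hour exposure; five concentrations; linearly interpolated endpoints. GI50: concentration for 50% inhibition of growth.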 Calls of active or inactive are those of the source. No stated cut-off is given here; in the data, active = GI50 up to about 1.1 µM and inactive = higher.

Assays:
Assay in all cases: NCI-60 cell line screen, 48 h
[1] = tested on: KM12
[2] = tested on: NCI/ADR-RES
[3] = tested on: PC-3
[4] = tested on: MCF7
[5] = tested on: IGROV-1
[6] = tested on: HCC 2998
[7] = tested on: RXF 393
[8] = tested on: OVCAR-8
[9] = tested on: HL-60
[10] = tested on: RPMI-8226
[11] = tested on: HCT-116
[12] = tested on: ACHN
[13] = tested on: OVCAR-4
[14] = tested on: BT-549
[15] = tested on: SK-MEL-28
[16] = tested on: T47D
[17] = tested on: EKVX
[18] = tested on: HOP-92
[19] = tested on: UO-31
[20] = tested on: SR
[21] = tested on: CAKI-1
[22] = tested on: M14
[23] = tested on: SK-OV-3
[24] = tested on: MOLT-4
[25] = tested on: HCT-15
[26] = tested on: LOX IMVI
[27] = tested on: SN12C
[28] = tested on: Hs-578T
[29] = tested on: SW-620
[30] = tested on: SK-MEL-5
[31] = tested on: HT-29
[32] = tested on: 786-0
[33] = tested on: U-251
[34] = tested on: MDA-MB-435
[35] = tested on: MDA-MB-231
[36] = tested on: COLO 205
[37] = tested on: OVCAR-5
[38] = tested on: MDA-N
[39] = tested on: Malme-3M
[40] = tested on: NCI-H460
[41] = tested on: NCI-H226
[42] = tested on: TK-10
[43] = tested on: OVCAR-3
[44] = tested on: SF-295
[45] = tested on: UACC-257
[46] = tested on: SF-268
[47] = tested on: CCRF-CEM
[48] = tested on: UACC-62
[49] = tested on: NCI-H522
[50] = tested on: SF-539
[51] = tested on: DU-145
[52] = tested on: SNB-75
[53] = tested on: A549
[54] = tested on: K562
[55] = tested on: NCI-H23
[56] = tested on: SK-MEL-2
[57] = tested on: HOP-62
[58] = tested on: SNB-19

## COC(=O)c1ccccc1C1CN=NC12Cc1c(ccc3c1CCC3)C2=O (stereo not drawn)
[1]
  GI50: 38.4 µM (inactive)
[2]
  GI50: 31.1 µM (inactive)
[3]
  GI50: 43.8 µM (inactive)
[4]
  GI50: 50.9 µM (inactive)
[5]
  GI50: 88.7 µM (inactive)
[6]
  GI50: > 100 µM (inactive)
[7]
  GI50: 48.6 µM (inactive)
[8]
  GI50: 92.5 µM (inactive)
[9]
  GI50: 23.4 µM (inactive)
[10]
  GI50: 28.8 µM (inactive)
[11]
  GI50: 43.2 µM (inactive)
[12]
  GI50: 72.4 µM (inactive)
[13]
  GI50: 45.2 µM (inactive)
[14]
  GI50: 92.7 µM (inactive)
[15]
  GI50: 95.1 µM (inactive)
[16]
  GI50: 54 µM (inactive)
[17]
  GI50: 45.9 µM (inactive)
[18]
  GI50: 27.4 µM (inactive)
[19]
  GI50: 80.5 µM (inactive)
[20]
  GI50: 46.2 µM (inactive)
[21]
  GI50: > 100 µM (inactive)
[22]
  GI50: 46.5 µM (inactive)
[23]
  GI50: > 100 µM (inactive)
[24]
  GI50: 30.5 µM (inactive)
[25]
  GI50: 41.5 µM
[26]
  GI50: 23.8 µM (inactive)
[27]
  GI50: 95.3 µM (inactive)
[28]
  GI50: 71.8 µM (inactive)
[29]
  GI50: 65.3 µM (inactive)
[30]
  GI50: 25.4 µM (inactive)
[31]
  GI50: 43.5 µM (inactive)
[32]
  GI50: > 100 µM (inactive)
[33]
  GI50: 41 µM (inactive)
[34]
  GI50: 23.9 µM (inactive)
[35]
  GI50: 67.8 µM (inactive)
[36]
  GI50: 47.8 µM (inactive)
[37]
  GI50: 84.3 µM (inactive)
[38]
  GI50: 20.1 µM (inactive)
[39]
  GI50: > 100 µM (inactive)
[40]
  GI50: > 100 µM (inactive)
[41]
  GI50: 41.5 µM (inactive)
[42]
  GI50: > 100 µM (inactive)
[43]
  GI50: 96.2 µM (inactive)
[44]
  GI50: 47.3 µM (inactive)
[45]
  GI50: 15.7 µM (inactive)
[46]
  GI50: > 100 µM (inactive)
[47]
  GI50: 49.5 µM (inactive)
[48]
  GI50: 55.1 µM (inactive)
[49]
  GI50: 0.635 µM (active)
[50]
  GI50: > 100 µM (inactive)
[51]
  GI50: > 100 µM (inactive)
[52]
  GI50: 51.8 µM (inactive)
[53]
  GI50: > 100 µM (inactive)
[54]
  GI50: 39.1 µM (inactive)
[55]
  GI50: 66.2 µM (inactive)
[56]
  GI50: 35.1 µM (inactive)
[57]
  GI50: > 100 µM (inactive)
[58]
  GI50: > 100 µM (inactive)
